Source: patent US12492193B2, “Pyrazole derivatives for the treatment of cystic fibrosis” (Fondazione Istituto Italiano Di Tecnologia, priority 2017, dated 2025)

How the values were obtained:
Format in all cases: cell-based
mutant CFTR = target: T1, mutant CFTR (Homo sapiens, UniProt P13569, DEL508-508); experiment: Fluorescence (HS-YFP) assay for CFTR activity, corrector assay; conditions: CFBE41o- and FRT cells with stable expression of mutant CFTR, 24 h compound treatment
T1 construct: expressed in transfected cells
T1 sequence (P13569 with tags, fused parts or gaps DEL508-508): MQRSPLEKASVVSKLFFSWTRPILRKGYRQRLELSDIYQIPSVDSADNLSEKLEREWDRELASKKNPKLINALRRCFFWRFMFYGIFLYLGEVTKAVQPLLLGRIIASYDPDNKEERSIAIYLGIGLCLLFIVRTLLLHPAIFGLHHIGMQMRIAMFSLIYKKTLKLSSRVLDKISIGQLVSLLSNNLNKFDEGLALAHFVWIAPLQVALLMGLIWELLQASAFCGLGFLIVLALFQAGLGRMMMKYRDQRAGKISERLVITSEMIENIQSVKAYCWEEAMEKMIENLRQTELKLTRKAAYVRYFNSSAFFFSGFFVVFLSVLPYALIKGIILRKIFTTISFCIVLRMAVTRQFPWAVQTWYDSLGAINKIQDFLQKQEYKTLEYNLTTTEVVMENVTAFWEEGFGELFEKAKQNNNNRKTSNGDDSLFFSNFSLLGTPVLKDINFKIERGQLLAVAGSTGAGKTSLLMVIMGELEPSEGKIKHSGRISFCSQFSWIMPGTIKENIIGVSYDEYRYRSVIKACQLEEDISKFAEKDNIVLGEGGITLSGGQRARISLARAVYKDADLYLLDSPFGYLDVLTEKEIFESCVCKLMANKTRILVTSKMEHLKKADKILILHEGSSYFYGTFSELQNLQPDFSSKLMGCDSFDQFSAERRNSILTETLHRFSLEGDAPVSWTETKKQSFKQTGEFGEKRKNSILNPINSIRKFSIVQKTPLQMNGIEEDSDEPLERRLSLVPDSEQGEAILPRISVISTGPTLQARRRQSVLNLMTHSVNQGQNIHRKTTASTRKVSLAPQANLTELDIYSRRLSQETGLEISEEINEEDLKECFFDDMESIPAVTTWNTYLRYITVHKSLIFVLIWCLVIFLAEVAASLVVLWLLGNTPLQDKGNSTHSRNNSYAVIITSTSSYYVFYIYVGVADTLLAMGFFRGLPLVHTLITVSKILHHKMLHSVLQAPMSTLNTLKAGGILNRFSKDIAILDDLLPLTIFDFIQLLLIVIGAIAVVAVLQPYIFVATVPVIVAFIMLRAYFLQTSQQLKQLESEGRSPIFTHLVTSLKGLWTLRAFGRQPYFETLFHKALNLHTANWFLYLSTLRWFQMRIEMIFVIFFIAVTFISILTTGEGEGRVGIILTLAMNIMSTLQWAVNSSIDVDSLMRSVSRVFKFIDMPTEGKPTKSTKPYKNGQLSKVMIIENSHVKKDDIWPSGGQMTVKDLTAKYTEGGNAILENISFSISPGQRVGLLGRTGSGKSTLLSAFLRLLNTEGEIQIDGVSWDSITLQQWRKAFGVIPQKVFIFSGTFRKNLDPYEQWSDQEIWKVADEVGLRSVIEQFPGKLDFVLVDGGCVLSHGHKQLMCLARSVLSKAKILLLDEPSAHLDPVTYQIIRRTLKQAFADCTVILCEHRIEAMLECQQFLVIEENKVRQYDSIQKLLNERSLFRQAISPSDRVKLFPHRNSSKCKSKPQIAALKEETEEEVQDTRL
Method in brief: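 Corrector activity: 24 h compound treatment of HS-YFP/mutant-CFTR CFBE41o- or FRT cells, followed by 30 min forskolin 20 μM + genistein 50 μM at 37° C. Iodide influx (100 mM final) was tracked as fluorescence quenching, with dF/dt extrapolated by exponential fitting; EC50 values derived.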

F508del-CFTR [1] = target: T2, F508del-CFTR (Homo sapiens, UniProt P13569, DEL508-508); experiment: Transepithelial electrical conductance (TEEC) in FRT cells expressing F508del-CFTR; design: expressed in transfected cells; host or cells: FRT cells; conditions: compounds tested at 5.0 μM, 24 hrs, table 2
T2 sequence (P13569 with tags, fused parts or gaps DEL508-508): as above
Method: Transepithelial Electrical Conductance (TEEC)
FRT cells expressing F508del-CFTR were plated on HTS Transwell-24 well permeable supports (Code 3379, Corning Life Sciences) at a density of 200,000 cells/well. After six days, cells were incubated for 24 hrs with test correctors, vehicle, or VX-809. Compounds were dissolved in both basolateral (800 μL) and apical (300 μL) culture medium. After treatment, the culture medium was removed and replaced on both sides with a saline solution containing (in mM): 130 NaCl, 2.7 KCl, 1.5 KH2PO4, 1 CaCl2), 0.5 MgCl2, 10 glucose, 10 Na-Hepes (pH 7.4). The basolateral and apical side received 800 μL and […], respectively. The 24-well tray with cells was placed on a block heater (SBH 130D, Stuart) to keep the temperature at 37° C. during the entire experiment. After 10 min, the basal transepithelial electrical resistance (TEER) across each layer of FRT cells was measured with a STX100C electrode pair connected to an EVOM2 voltohmeter (World Precision Instruments). To stimulate F508del-CFTR, each well received (apical side) 50 μL of saline solution containing 60 μM forskolin and 150 μM genistein (final concentrations: 20 μM forskolin, 50 μM genistein). Forskolin was also pipetted in the basolateral medium to obtain the 20 μM concentration. After 10 min TEER was measured again in each well. To block F508del-CFTR function, the inhibitor PPQ-102 was used at the final concentration of 30 μM. To achieve the desired concentration, 75 μL of the apical solution in each well was replaced with an equal volume of saline solution containing 20 μM forskolin, 50 μM genistein, and 60 μM PPQ-102. After further 10 min, the transepithelial electrical resistance was measured. All values of TEER were converted to transepithelial electrical conductance (TEEC) using the formula TEEC=1/TEER. The parameter to indicate activity of F508del-CFTR in each well (ATEEC) was calculated from the difference in TEEC measured after maximal stimulation of F508del-CFTR with forskolin and genistein and after block with PPQ-102.
Corrector activities obtained on selected compounds tested at 5.0 μM (expressed as ΔTEEC values) are illustrated in table 2, wherein +: ΔTEEC<2000 μS; ++: 2000 μS<ΔTEEC<3000 μS; […]: ΔTEEC>3000 μS.

F508del-CFTR [2] = target: T2, F508del-CFTR; experiment: Short-circuit current recordings on human bronchial epithelial cells (F508del/F508del); design: Human bronchial epithelial (HBE) cells obtained from CF patients (F508del/F508del genotype); endogenous in cells; host or cells: primary human bronchial epithelial cells from CF patients, F508del/F508del; conditions: HBE cells from CF patients (F508del/F508del), 24 hrs treatment; table 3
Method: Short-Circuit Current Recordings on Human Bronchial Epithelial Cells
Human bronchial epithelial (HBE) cells obtained from CF patients (F508del/F508del genotype) were plated on Snapwell inserts (Code 3801, Corning Life Sciences) at a density of 500,000 cells per insert. Cells were cultured for two weeks in a differentiating medium whose compositions has been previously described (Scudieri et al., J Physiol 590:6141-6155, 2012). For the first week, the medium was kept on both apical and basolateral sides of inserts (submerged condition). For the second week, the apical medium was removed (air-liquid condition, ALC). To test the activity of correctors, cells were treated for 24 hrs with compounds dissolved in the basolateral medium. After treatment, Snapwell inserts carrying differentiated bronchial epithelia were mounted in a vertical chamber resembling an Ussing system with internal fluid circulation. Both apical and basolateral hemichambers were filled with 5 mL of a Krebs bicarbonate solution containing (in mM): 126 NaCl, 0.38 KH2PO4, 2.13 K2HPO4, 1 MgSO4, 1 CaCl2), 24 NaHCO3, and 10 glucose. Both sides were continuously bubbled with a gas mixture containing 5% CO2-95% air and the temperature of the solution was kept at 37° C. The transepithelial voltage was short-circuited with a voltage-clamp (DVC-1000, World Precision Instruments) connected to the apical and basolateral chambers via Ag/AgCl electrodes and agar bridges (1 M KCl in 1% agar). The offset between voltage electrodes and the fluid resistance were canceled before experiments. The short-circuit current was recorded with a PowerLab 4/25 (ADInstruments) analogical to digital converter connected to a Macintosh computer. […] The difference between the current measured with CPT-cAMP plus potentiator and the current remaining after CFTRinh-172 treatment (ΔICFTR) was taken as the parameter reflecting F508del-CFTR expression in the apical membrane.
Activities of selected compounds on HBE cells (expressed as ΔICFTR) are illustrated in table 3 wherein +: ΔICFTR<2.0 μA; ++: 2.0 μA<ΔICFTR<3.0 μA; +++: ΔICFTR>3.0 μA.

Row | EC50 (mutant CFTR) [nM] | Corrector activity (ΔTEEC) (F508del-CFTR [1]) | activity on HBE cells (ΔICFTR) (F508del-CFTR [2]) | SMILES
1 | < 1000 | ++ (2000 μS<ΔTEEC<3000 μS) | +++ (ΔICFTR>3.0 μA) | Cc1c(Br)c(C(F)(F)F)nn1-c1cccc(C(=O)N(C)c2ccc3c(c2)OCO3)c1 [compound 098, N-(1,3-Benzodioxol-5-yl)-3-[4-bromo-5-methyl-3-(trifluoromethyl)pyrazol-1-yl]-N-methyl-benzamide]
2 | < 1000 | + (ΔTEEC<2000 μS) | +++ (ΔICFTR>3.0 μA) | Cc1nn(-c2cccc(C(=O)N(C)c3ccc4c(c3)OCO4)c2)c(C(=O)OC(C)(C)C)c1Cl [compound 089, Tert-butyl 2-[3-[1,3-benzodioxol-5-yl(methyl)carbamoyl]phenyl]-4-chloro-5-methyl-pyrazole-3-carboxylate]
3 | < 1000 | ++ (2000 μS<ΔTEEC<3000 μS) | ++ (2.0 μA<ΔICFTR<3.0 μA) | Cc1nc2cc(Cl)c(N(C)C(=O)c3cccc(-n4nc(C)c(Cl)c4C)c3)cc2o1 [compound 080, 3-(4-Chloro-3,5-dimethyl-pyrazol-1-yl)-N-(5-chloro-2-methyl-1,3-benzoxazol-6-yl)-N-methyl-benzamide]
4 | < 1000 | + (ΔTEEC<2000 μS) | + (ΔICFTR<2.0 μA) | CN(C(=O)c1cccc(-n2nc(C(F)(F)F)cc2-c2ccccc2)c1)c1ccc2c(c1)OCO2 [compound 125, N-(1,3-Benzodioxol-5-yl)-N-methyl-3-[5-phenyl-3-(trifluoromethyl)pyrazol-1-yl]benzamide]
5 | < 1000 | ++ (2000 μS<ΔTEEC<3000 μS) | +++ (ΔICFTR>3.0 μA) | Cc1c(Cl)c(C(F)(F)F)nn1-c1cccc(C(=O)N(C)c2ccc3c(c2)OCO3)c1 [compound 090, N-(1,3-Benzodioxol-5-yl)-3-[4-chloro-5-methyl-3-(trifluoromethyl)pyrazol-1-yl]-N-methyl-benzamide]
6 | < 1000 | + (ΔTEEC<2000 μS) | + (ΔICFTR<2.0 μA) | CC(C)Cc1cc(C(F)(F)F)nn1-c1cccc(C(=O)N(C)c2ccc3c(c2)OCO3)c1 [compound 100, N-(1,3-Benzodioxol-5-yl)-3-[5-isobutyl-3-(trifluoromethyl)pyrazol-1-yl]-N-methyl-benzamide]
7 | < 1000 | ++ (2000 μS<ΔTEEC<3000 μS) | + (ΔICFTR<2.0 μA) | Cc1nc2ccc(N(C)C(=O)c3cccc(-n4nc(C(F)(F)F)c(Cl)c4C)c3)cc2o1 [compound 108, 3-[4-Chloro-5-methyl-3-(trifluoromethyl)pyrazol-1-yl]-N-methyl-N-(2-methyl-1,3-benzoxazol-6-yl)benzamide]
8 | < 1000 | + (ΔTEEC<2000 μS) | + (ΔICFTR<2.0 μA) | CCOC(=O)c1c(Cl)c(C)nn1-c1cccc(C(=O)N(C)c2ccc3c(c2)OCO3)c1 [compound 075, Ethyl 2-[3-[1,3-benzodioxol-5-yl(methyl)carbamoyl]phenyl]-4-chloro-5-methyl-pyrazole-3-carboxylate]
9 | 1000 to 2000 | + (ΔTEEC<2000 μS) | ++ (2.0 μA<ΔICFTR<3.0 μA) | Cc1nn(-c2cccc(C(=O)N(C)c3ccc4c(c3)OC(F)(F)O4)c2)c(C)c1Cl [compound 009, 3-(4-Chloro-3,5-dimethyl-pyrazol-1-yl)-N-(2,2-difluoro-1,3-benzodioxol-5-yl)-N-methyl-benzamide]
10 | < 1000 | ++ (2000 μS<ΔTEEC<3000 μS) | +++ (ΔICFTR>3.0 μA) | CCOC(=O)c1ccc(OCc2c(Cl)c(C)nn2-c2cccc(C(=O)N(C)c3ccc4c(c3)OCO4)c2)cc1 [compound 141, Ethyl 4-[[2-[3-[1,3-benzodioxol-5-yl(methyl)carbamoyl]phenyl]-4-chloro-5-methyl-pyrazol-3-yl]methoxy]benzoate]
11 | < 1000 | ++ (2000 μS<ΔTEEC<3000 μS) | ++ (2.0 μA<ΔICFTR<3.0 μA) | Cc1nn(-c2cccc(C(=O)N(C)c3ccc4c(c3)OCO4)c2)c(C)c1C(F)(F)F [compound 099, N-(1,3-Benzodioxol-5-yl)-3-[3,5-dimethyl-4-(trifluoromethyl)pyrazol-1-yl]-N-methyl-benzamide]
